Measurements as given in patent US3955959A, “Herbicide for use in transplanted rice” (priority 1974, dated 1976).
Converted amounts (≈) assume the structure as drawn.

Columns and labels:
transplanted rice = assay: Example 1 field test, rice yield; type: in vivo, rice (Watanabe variety)
Excerpt: (§1) In the field test 48 day-old seedlings (Watanabe variety) were transplanted to plots 2.5 × 6 m. seeded with the weed seeds indicated in Table 1. At 5 and 10 DAT periods, the herbicides were applied to the plants (now at the 1.2 and 2.0 leaf stage, respectively, of grass weed) at the indicated rate in kilograms per hectare (kg/ha). The weed control and rice injury results for 3 replications are reported in percentages as of the indicated times of observation. The percentages given in the "Perennials" column are based on the weight of the weeds at 63 DAT, i.e., 42 gms/3.6 m^2 for the weedy check.

[1] = Example 10 fish toxicity, Japanese protocol; type: in vivo, carp; details: carp, in vivo, read-out: Medium Lethal Concentration
Protocol: In view of the importance of fish toxicological considerations, tests were conducted, using carp according to the Japanese protocol, to compare toxicity data for Herbicides A and B; results of those tests are shown in Table 10.

[2] = tested on: Perennials Ek and Sa (Eleocharis kuroguwai, Sagittaria aginashi); assay: Example 1 field test, perennial weed control, Iri, Korea; type: in vivo; details: weed weight at 63 DAT
Excerpt: as §1

[3] = tested on: Mv (Monochoria vaginalis); assay: Example 1 field test, weed control in transplanted rice, Iri, Korea; type: in vivo; details: av. of 36 and 63 DAT
Excerpt: as §1

Aj (Aneiliema japonica) = assay: as above; type: in vivo; details: av. of 36 and 63 DAT
Excerpt: as §1

[4] = tested on: Eo (Echinochloa oryzicola); assay: as above; type: in vivo; details: av. of 36 and 63 DAT
Excerpt: as §1

Ci (Cyperus iria) = assay: as above; type: in vivo; details: av. of 36 and 63 DAT
Excerpt: as §1

Dapog transplanted rice [5] = assay: Example 3 field test, rice yield; type: in vivo
Protocol: (§2) In the tests described in the tables below, the herbicides were formulated and used in granular form in conventional manner. […] The commercial herbicide used was a granular product having 5% active ingredient.
(§3) In the field tests of the herbicide of this invention with transplanted rice, the rice seedlings were grown in conventional manner, by seeding the rice in a typical seedbed of sandy loam to clay soil of the country wherein the test was conducted. For laboratory and greenhouse work the seedlings were obtained by seeding rice in a mixture of soil, e.g., Ray silt loam, and peat in wood flats. For purposes of testing the herbicides on younger rice seedlings (infant or Dapog) the rice was usually allowed to grow for 6-15 days before lifting for transplanting. Older (ordinary) rice plants were usually grown for a period of about 2-3 weeks, or as much as about 7 weeks before lifting. Since the period of growth is dependent upon climatic conditions, a better measure of when to transplant the rice seedling is the leaf stage of growth; for infant or Dapog rice the seedling is lifted at the 1.5-2 leaf stage of growth, and for ordinary seedlings at the 2.5-5 leaf stage. The seedlings were then transplanted to the test plots for evaluation of the herbicide for injury against weed species present with the transplanted rice. The herbicides were then applied to the growth medium of the weeds and transplant rice, either preemergent or postemergent with respect to the weeds and postemergent with respect to the transplanted rice. Application times are designated in the tables as "DAT", meaning "days after transplant". Application rates given in the tables refer to the amount of active ingredient used.
(§4) Eleven (11) day-old Dapog seedlings were transplanted and treated at 5 DAT and 14 DAT with Herbicides A and B. The plots were overseeded with Echinochloa crusgalli seeds at 2 kgs/ha prior to transplanting. Treatments were replicated four times.

Dapog transplanted rice [6] = assay: Example 3 field test, crop injury; details: obs. 42 DAT
Protocol: as §2, §3, §4

[7] = tested on: pigweed, annual morning glory, smartweed, cocklebur, Italian ryegrass, crop rye, sorghum, quack grass and nutsedge; assay: Example 9 soil life bioassay, greenhouse; type: in vivo; details: 5 lbs/Ac (5.605 kg/ha), Ray silt loam
Protocol: In this example, additional tests were run to compare the relative soil life of Herbicides A and B under greenhouse conditions.
In the soil life tests, a standardized procedure involving a series of bioassay periods, or cycles, was used. In the procedure, an arbitrary, selected mixture of four grasses, four broadleaf weeds and a sedge were seeded into Ray silt loam soil previously prepared and treated with the herbicide under test and periodically watered by sub-irrigation. After a six-week bioassay period, (i.e., the first cycle), the plants were evaluated visually for herbicidal activity. That soil in which at least 75% of three or more grass and/or broadleaf species or of the sedge alone were controlled at the end of the cycle, was advanced to a second cycle, or six-week bioassay period. The second cycle involved the same procedure as the first cycle, except that additionally, the equivalent of 50 lbs/ac (56.05 Kgs/ha) of nitrogen was mixed into the cover layer of the soil which was reseeded with the mixture of plants mentioned earlier. The plants were evaluated for herbicidal activity at the end of this six-week period and, again, the soil in which at least 75% of the grasses or broadleaf species or of the sedge alone were controlled was advanced to a third cycle. The foregoing procedure was repeated until herbicidal activity fell below that required for initiation of a new cycle.
For purposes of the soil life tests, the following spectrum of plants were used as indicators: pigweed, annual morning glory, smartweed, cocklebur, Italian ryegrass, crop rye, sorghum, quack grass and nutsedge.

[8] = tested on: weeds in transplanted rice; assay: Field tests / general herbicidal activity in transplanted rice; type: in vivo; details: field tests

SMILES: CCCCOCN(C(=O)CCl)c1c(CC)cccc1CC [Herbicide B, n-(butoxymethyl)-2',6'-diethyl-2-chloroacetanilide, reference compound]
- yield depression (transplanted rice; 1.0 kg/ha): significant yield depression
- Yield (% of Hand-weeded Check) (transplanted rice; 5 DAT, 1.0 kg/ha): 95%
- Yield (% of Hand-weeded Check) (transplanted rice; 5 DAT, 1.5 kg/ha): 100%
- Yield (% of Hand-weeded Check) (transplanted rice; 5 DAT, 3.0 kg/ha): 99%
- Yield (% of Hand-weeded Check) (transplanted rice; 10 DAT, 1.0 kg/ha): 95%
- Yield (% of Hand-weeded Check) (transplanted rice; 10 DAT, 1.5 kg/ha): 97%
- Yield (% of Hand-weeded Check) (transplanted rice; 10 DAT, 3.0 kg/ha): 100%
- LC50 at 48 h ([1]; 48 hours): 1 µg/mL (≈ 3.21 µM)
- LC50 at 96 h ([1]; 96 hours): 0.76 µg/mL (≈ 2.44 µM)
- % Weed Control (Perennials Ek and Sa) ([2]; 5 DAT, 1.0 kg/ha): 0%
- % Weed Control (Perennials Ek and Sa) ([2]; 5 DAT, 1.5 kg/ha): 41%
- % Weed Control (Perennials Ek and Sa) ([2]; 5 DAT, 3.0 kg/ha): 0%
- % Weed Control (Perennials Ek and Sa) ([2]; 10 DAT, 1.0 kg/ha): 0%
- % Weed Control (Perennials Ek and Sa) ([2]; 10 DAT, 1.5 kg/ha): 0%
- % Weed Control (Perennials Ek and Sa) ([2]; 10 DAT, 3.0 kg/ha): 0%
- % Weed Control (Mv) ([3]; 5 DAT, 1.0 kg/ha): 43%
- % Weed Control (Mv) ([3]; 5 DAT, 1.5 kg/ha): 55%
- % Weed Control (Mv) ([3]; 5 DAT, 3.0 kg/ha): 70%
- % Weed Control (Mv) ([3]; 10 DAT, 1.0 kg/ha): 58%
- % Weed Control (Mv) ([3]; 10 DAT, 1.5 kg/ha): 75%
- % Weed Control (Mv) ([3]; 10 DAT, 3.0 kg/ha): 69%
- % Weed Control (Aj) (Aj (Aneiliema japonica); 5 DAT, 1.0 kg/ha): 79%
- % Weed Control (Aj) (Aj (Aneiliema japonica); 5 DAT, 1.5 kg/ha): 76%
- % Weed Control (Aj) (Aj (Aneiliema japonica); 5 DAT, 3.0 kg/ha): 85%
- % Weed Control (Aj) (Aj (Aneiliema japonica); 10 DAT, 1.0 kg/ha): 58%
- % Weed Control (Aj) (Aj (Aneiliema japonica); 10 DAT, 1.5 kg/ha): 77%
- % Weed Control (Aj) (Aj (Aneiliema japonica); 10 DAT, 3.0 kg/ha): 78%
- % Weed Control (Eo) ([4]; 5 DAT, 1.0 kg/ha): 64%
- % Weed Control (Eo) ([4]; 5 DAT, 1.5 kg/ha): 89%
- % Weed Control (Eo) ([4]; 5 DAT, 3.0 kg/ha): 92%
- % Weed Control (Eo) ([4]; 10 DAT, 1.0 kg/ha): 68%
- % Weed Control (Eo) ([4]; 10 DAT, 1.5 kg/ha): 83%
- % Weed Control (Eo) ([4]; 10 DAT, 3.0 kg/ha): 77%
- % Weed Control (Ci) (Ci (Cyperus iria); 5 DAT, 1.0 kg/ha): 98%
- % Weed Control (Ci) (Ci (Cyperus iria); 5 DAT, 1.5 kg/ha): 97%
- % Weed Control (Ci) (Ci (Cyperus iria); 5 DAT, 3.0 kg/ha): 99%
- % Weed Control (Ci) (Ci (Cyperus iria); 10 DAT, 1.0 kg/ha): 54%
- % Weed Control (Ci) (Ci (Cyperus iria); 10 DAT, 1.5 kg/ha): 100%
- % Weed Control (Ci) (Ci (Cyperus iria); 10 DAT, 3.0 kg/ha): 93%
- yield vs control (Dapog transplanted rice [5]; 1 kg/ha, 5 DAT): significantly higher than the control
- Yield (% of H.W. Check) (Dapog transplanted rice [5]; 5 DAT, 1.0 kg/ha): 142%
- Yield (% of H.W. Check) (Dapog transplanted rice [5]; 5 DAT, 1.5 kg/ha): 107%
- Yield (% of H.W. Check) (Dapog transplanted rice [5]; 5 DAT, 3.0 kg/ha): 101%
- Yield (% of H.W. Check) (Dapog transplanted rice [5]; 14 DAT, 1.0 kg/ha): 83%
- Yield (% of H.W. Check) (Dapog transplanted rice [5]; 14 DAT, 1.5 kg/ha): 89%
- Yield (% of H.W. Check) (Dapog transplanted rice [5]; 14 DAT, 3.0 kg/ha): 93%
- Crop Injury (%) (Dapog transplanted rice [6]; 5 DAT, 1.0 kg/ha): 0%
- Crop Injury (%) (Dapog transplanted rice [6]; 5 DAT, 1.5 kg/ha): 0%
- Crop Injury (%) (Dapog transplanted rice [6]; 5 DAT, 3.0 kg/ha): 0%
- Crop Injury (%) (Dapog transplanted rice [6]; 14 DAT, 1.0 kg/ha): 0%
- Crop Injury (%) (Dapog transplanted rice [6]; 14 DAT, 1.5 kg/ha): 0%
- Crop Injury (%) (Dapog transplanted rice [6]; 14 DAT, 3.0 kg/ha): 0%
- Soil Longevity [7]: 20 Weeks
- latest/optimum application stage of weeds [8]: 1 leaf stage
